Measured values as given in patent US10385005B2, “Compositions and methods for glucose transport inhibition” (OHIO UNIVERSITY, priority 2010, dated 2019).

How the values were obtained:
[1] = system: HeLa cells; experiment: Glucose uptake assay (3H 2-DG), HeLa; assay type: cell-based, human
Protocol: Cells were treated with α-PGG for 20 minutes before ^3H-labeled 2-DG. […] Samples: 1. Mock; 2. […] WZB-25 (30 μM); 5. WZB-26 (30 μM); and 6. WZB-27 (30 μM). Compounds 1a and 2a were initially prepared as potential anti-diabetic analogs of α-PGG (FIG. 1). Given the tight SAR of this class of compounds, it was hypothesized that a more rigid scaffold (i.e., a benzene ring) might enhance the activity. […] Error bars in FIG. 8 represent standard deviations of the measurements. Samples were done in triplicates and the experiment was repeated three times.

[2] = system: RKO cells; experiment: Glucose uptake assay (3H 2-DG), RKO; assay type: cell-based, human; details: 30 μM
Protocol: (§1) Cells were treated with α-PGG for 20 minutes before ^3H-labeled 2-DG. Thirty minutes after the addition of 2-DG, cells were harvested, lysed, and counted for their respective glucose uptake. Samples: 1. Mock; 2. […] WZB-25 (30 μM); 5. WZB-26 (30 μM); and 6. WZB-27 (30 μM).
(§2) Compounds 1a and 2a were initially prepared as potential anti-diabetic analogs of α-PGG (FIG. 1). Given the tight SAR of this class of compounds, it was hypothesized that a more rigid scaffold (i.e., a benzene ring) might enhance the activity.

[3] = system: MCF-7 cells; experiment: Glucose uptake assay (3H 2-DG), MCF-7; assay type: cell-based, human; details: 30 μM
Protocol: as §1, §2

[4] = system: H1299 cells; experiment: Standard glucose uptake assay, H1299; assay type: cell-based, human
Protocol: (§3) Briefly, H1299 cancer cells were treated with or without the compounds (30 μM) in triplicates for 10 min before the glucose uptake assay. Cellular glucose uptake was measured by incubating cells in the glucose-free KRP buffer with […] [^3H]2-deoxyglucose (specific activity, 40 Ci/mmol) for 30 min in the absence or presence of compounds. After the cells were washed with ice-cold PBS and lysed by 0.2 N NaOH, the cell lysates were transferred to scintillation counting vials and the radioactivity in the cell lysates was quantified by liquid scintillation counting. Cell growth measurements were performed using an MTT assay in hexads in a 96-well tissue culture plate with 5,000 cells plated in each well. The cells were incubated in presence or absence of the compounds (30 μM) for 48 h. After incubation, cell viabilities were assayed using a 96-well SPECTRAMAX™ absorbance/fluorescence plate reader (Molecular Devices).
Cancer cells are treated with or without the compounds for 10 min before the glucose uptake assay. Cellular glucose uptake will be measured by incubating cells in glucose-free RPMI 1640 with […] [^3H]2-deoxyglucose (specific activity, 40 Ci/mmol) for 30 min in the absence and presence of compounds. After the cells are washed with ice-cold PBS and lysed, the cell lysates will be transferred to scintillation counting vials and the radioactivity in the cell lysates is quantified by liquid scintillation counting.

[5] = system: H1299 lung cancer cells; experiment: MTT cell growth / viability assay, H1299; assay type: cell-based, human; details: Table 2, 30 μM, 48 h
Protocol: as §3
MTT assays are performed by the following well-established method. In a 96 well tissue culture plate 10,000 cells are plated in each well. The cells are incubated in presence or absence of the compounds for 18 h. 3-(4,5-Dimethylthiazol-2-yl)-2,5-diphenyltetrazolium bromide (MTT) is dissolved in PBS (10 mg/ml) and filter sterilized. Three hours before the end of the incubation 20 μL of MTT solution is added to each well containing cells in a 96-well plate. The plate is incubated in an incubator at 37° C. for 3 h. Media is aspirated gently and 200 μL of DMSO is added to each well to dissolve formazan crystals. The absorbance is measured at 550 nm for cell viability.

[6] = system: insulin-like glucose uptake stimulatory activity; experiment: Insulin-like activity of PGG analogs; assay type: cell-based
[7] = system: RKO (colon), HeLa (cervical), and MCF-7 (breast) human cancer cells; experiment: Cell viability (MTT) assay of α-PGG treated cancer cells; assay type: cell-based; details: FIG. 5A
Source text: (§4) A. α-PGG treatment led to 70-80% reduction of cell viability as measured by a cell viability (MTT) assay. […] C. α-PGG treatment of HeLa cells led to a decrease in G1 phase cells but a significant increase (˜3-fold) in apoptotic cells as determined by an antibody-coupled flow cytometry study.

[8] = system: HeLa cells; experiment: Apoptosis (ELISA) assay; assay type: cell-based, human; details: FIG. 5B
[9] = system: HeLa cells; experiment: Antibody-coupled flow cytometry study; assay type: cell-based, human; details: FIG. 5C
Source text: as §4

SMILES | Glucose transport inhibitory activity (%) ([1]; Hela, 30 μM) | Glucose transport inhibitory activity (%) [2] | Glucose transport inhibitory activity (%) [3] | Glucose transport inhibition (%) ([4]; Table 2, H1299, 30 μM, untreated cells 0% inhibition) | % inhibition of basal glucose transport ([4]; Table 3, 30 μM in H1299 cells, listed as WZB-26) | Cell growth inhibition (%) [5] | insulin-like activity [6] | concentration at which glucose transport inhibition starts ([1]; HeLa, 20 min preincubation) | reduction of cell viability [7] | increase in apoptosis [8] | increase in apoptotic cells [9]
COc1cccc(OC(=O)c2cc(O)c(O)c(O)c2)c1OC(=O)c1cc(O)c(O)c(O)c1 [Compound 1a] | 46.3 ± 3.3% | 57.2 ± 4.4% | 33.0 ± 0.5% | 58.4±6.3% | 84.0 ± 1.9% | 36.0±6.1% | without any insulin-like activity |  |  |  | 
O=C(OC[C@H]1O[C@@H](OC(=O)c2cc(O)c(O)c(O)c2)[C@H](OC(=O)c2cc(O)c(O)c(O)c2)[C@@H](OC(=O)c2cc(O)c(O)c(O)c2)[C@@H]1OC(=O)c1cc(O)c(O)c(O)c1)c1cc(O)c(O)c(O)c1 [α-PGG, penta-galloyl-glucose] |  |  |  |  |  |  |  | 5 µM | 70-80% | more than 2 fold | ~3 fold
